In patent publication US20260191968A1, “PROTAC DEGRADERS OF MLLT1 AND/OR MLLT3” (DARK BLUE THERAPEUTICS LTD, priority 2024, published 2026):

Molecular target: T1, MLLT1 (Homo sapiens, UniProt Q03111)
T1 construct: host or cells: MV4-11
T1 sequence (Q03111 1-559): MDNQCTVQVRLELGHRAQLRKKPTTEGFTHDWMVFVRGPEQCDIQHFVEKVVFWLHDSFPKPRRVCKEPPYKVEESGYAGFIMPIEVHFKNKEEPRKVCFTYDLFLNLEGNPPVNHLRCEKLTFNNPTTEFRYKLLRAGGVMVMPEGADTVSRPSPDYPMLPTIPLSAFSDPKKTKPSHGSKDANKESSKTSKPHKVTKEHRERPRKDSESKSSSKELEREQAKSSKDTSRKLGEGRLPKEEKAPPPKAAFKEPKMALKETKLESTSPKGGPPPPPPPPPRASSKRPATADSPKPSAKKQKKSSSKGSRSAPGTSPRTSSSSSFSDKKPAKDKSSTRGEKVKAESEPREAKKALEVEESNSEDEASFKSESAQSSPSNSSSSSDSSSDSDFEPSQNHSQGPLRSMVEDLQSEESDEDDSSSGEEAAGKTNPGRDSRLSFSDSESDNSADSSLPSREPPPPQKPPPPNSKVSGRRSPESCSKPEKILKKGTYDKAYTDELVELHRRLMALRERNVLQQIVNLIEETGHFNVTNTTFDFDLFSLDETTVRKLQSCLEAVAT
Test: MLLT1 degradation assay in MV4-11 cells (JESS chemiluminescent detection), three concentrations, 24 h
Format: cell-based
Settings: with respect to DMSO control
Procedure: MLLT1 degradation efficacy of compounds were tested in an automated chemiluminescent detection system (JESS, Cat #004-650). […] 10 mM DMSO stocks were prepared, and cells were treated with three concentrations of test compounds viz. 1000, 100 and 10 nM at a final DMSO concentration of 0.1% and incubated for 24 h at 37° C., 5% CO2. […] Post run, data were analysed using “Compass for SW” software for chemiluminescent detection. The peak area for each band was used for the calculation of MLLT1 degradation with respect to DMSO control. Data is shown as “MLLT1% degradation”.

| SMILES | MLLT1% Degradation @ 0.01 μM | MLLT1% Degradation @ 0.1 μM | MLLT1% Degradation @ 1 μM |
| --- | --- | --- | --- |
| CN1CCC[C@@H]1c1cc2cnc(NC(=O)c3ccc(CCCC#Cc4ccc5c(c4)C(=O)N(C4CCC(=O)NC4=O)C5)cc3)cc2[nH]1 (stereo partly drawn) [Example 225, 4-(5-(2-(2,6-dioxopiperidin-3-yl)-3-oxoisoindolin-5-yl)pent-4-yn-1-yl)-N-(2-((R)-1-methylpyrrolidin-2-yl)-1H-pyrrolo[3,2-c]pyridin-6-yl)benzamide] | C (Category C: 25% ≤ C < 50% degradation) | C (Category C: 25% ≤ C < 50% degradation) | C (Category C: 25% ≤ C < 50% degradation) |
| CN1CCC[C@@H]1c1cc2cnc(NC(=O)c3ccc(OCCC4CCN(c5cccc6c5CN(C5CCC(=O)NC5=O)C6=O)CC4)cc3F)cc2[nH]1 (stereo in doubt) [Example 173, 4-(2-(1-(2-((rel-R)-2,6-dioxopiperidin-3-yl)-1-oxoisoindolin-4-yl)piperidin-4-yl)ethoxy)-2-fluoro-N-(2-((R)-1-methylpyrrolidin-2-yl)-1H-pyrrolo[3,2-c]pyridin-6-yl)benzamide] | B (Category B: 50% ≤ B < 75% degradation) | A (Category A: A ≥ 75% degradation) | A (Category A: A ≥ 75% degradation) |
| CN1CCC[C@@H]1c1cc2cnc(NC(=O)c3ccc(N4CCC(CN5CCN(c6cccc7c6CN(C6CCC(=O)NC6=O)C7=O)CC5)CC4)cc3)cc2[nH]1 (stereo partly drawn) [Example 92, 4-(4-((4-(2-(2,6-dioxopiperidin-3-yl)-1-oxoisoindolin-4-yl)piperazin-1-yl)methyl)piperidin-1-yl)-N-(2-((R)-1-methylpyrrolidin-2-yl)-1H-pyrrolo[3,2-c]pyridin-6-yl)benzamide] | B (Category B: 50% ≤ B < 75% degradation) | B (Category B: 50% ≤ B < 75% degradation) | B (Category B: 50% ≤ B < 75% degradation) |
| CN1CCC[C@@H]1c1cc2cnc(NC(=O)c3cnn(CCCC4CCN(c5cccc6c5C(=O)N(C5CCC(=O)NC5=O)C6=O)CC4)c3)cc2[nH]1 (stereo partly drawn) [Example 38, 1-(3-{1-[2-(2,6-dioxopiperidin-3-yl)-1,3-dioxoisoindol-4-yl]piperidin-4-yl}propyl)-N-{2-[(2R)-1-methylpyrrolidin-2-yl]-1H-pyrrolo[3,2-c]pyridin-6-yl}pyrazole-4-carboxamide] | D (Category D: D < 25% degradation) | D (Category D: D < 25% degradation) | C (Category C: 25% ≤ C < 50% degradation) |
| CN1CCC[C@@H]1c1[nH]c2cc(NC(=O)c3ccc(OCCC4CCN(c5cccc6c5CN(C5CCC(=O)NC5=O)C6=O)CC4)cc3)ncc2c1Cl (stereo in doubt) [Example 162, N-(3-chloro-2-((R)-1-methylpyrrolidin-2-yl)-1H-pyrrolo[3,2-c]pyridin-6-yl)-4-(2-(1-(2-((rel-R)-2,6-dioxopiperidin-3-yl)-1-oxoisoindolin-4-yl)piperidin-4-yl)ethoxy)benzamide] | A (Category A: A ≥ 75% degradation) | A (Category A: A ≥ 75% degradation) | A (Category A: A ≥ 75% degradation) |
| CN1CCC[C@@H]1c1cc2cnc(NC(=O)c3ccc(N4CCN(CC5CCN(c6cccc(C(=O)N[C@H]7CCC(=O)NC7=O)n6)CC5)CC4)cc3)cc2[nH]1 [Example 182, N—((S)-2,6-dioxopiperidin-3-yl)-6-(4-((4-(4-((2-((R)-1-methylpyrrolidin-2-yl)-1H-pyrrolo[3,2-c]pyridin-6-yl)carbamoyl)phenyl)piperazin-1-yl)methyl)piperidin-1-yl)picolinamide] | C (Category C: 25% ≤ C < 50% degradation) | B (Category B: 50% ≤ B < 75% degradation) | B (Category B: 50% ≤ B < 75% degradation) |
| CN1CCC[C@@H]1c1cc2cnc(NC(=O)c3ccc(N4CCC(c5ccc(-c6cccc7c6CN(C6CCC(=O)NC6=O)C7=O)cc5)CC4)cc3F)cc2[nH]1 (stereo partly drawn) [Example 218, 4-(4-(4-(2-(2,6-dioxopiperidin-3-yl)-1-oxoisoindolin-4-yl)phenyl)piperidin-1-yl)-2-fluoro-N-(2-((R)-1-methylpyrrolidin-2-yl)-1H-pyrrolo[3,2-c]pyridin-6-yl)benzamide] | C (Category C: 25% ≤ C < 50% degradation) | A (Category A: A ≥ 75% degradation) | B (Category B: 50% ≤ B < 75% degradation) |
| CN1CCC[C@@H]1c1cc2cnc(NC(=O)c3ccc(N4CCC(CCCCC#Cc5cccc6c5CN(C5CCC(=O)NC5=O)C6=O)CC4)nc3)cc2[nH]1 (stereo partly drawn) [Example 188, 6-(4-(6-(2-(2,6-dioxopiperidin-3-yl)-1-oxoisoindolin-4-yl)hex-5-yn-1-yl)piperidin-1-yl)-N-(2-((R)-1-methylpyrrolidin-2-yl)-1H-pyrrolo[3,2-c]pyridin-6-yl)nicotinamide] | C (Category C: 25% ≤ C < 50% degradation) | B (Category B: 50% ≤ B < 75% degradation) | B (Category B: 50% ≤ B < 75% degradation) |
| CN1CCC[C@@H]1c1[nH]c2cc(NC(=O)c3ccc(N4CCN(CC#Cc5cccc6c5CN(C5CCC(=O)NC5=O)C6=O)CC4)nc3)ncc2c1Cl (stereo partly drawn) [Example 72, N-(3-chloro-2-((R)-1-methylpyrrolidin-2-yl)-1H-pyrrolo[3,2-c]pyridin-6-yl)-6-(4-(3-(2-(2,6-dioxopiperidin-3-yl)-1-oxoisoindolin-4-yl)prop-2-yn-1-yl)piperazin-1-yl)nicotinamide] | A (Category A: A ≥ 75% degradation) | A (Category A: A ≥ 75% degradation) | C (Category C: 25% ≤ C < 50% degradation) |
| CN1CCC[C@@H]1c1cc2cnc(NC(=O)c3ccc(OC4CN(CCC5CCN(c6ccc7c(c6)C(=O)N(C6CCC(=O)NC6=O)C7=O)CC5)C4)cc3)cc2[nH]1 (stereo partly drawn) [Example 227, 4-((1-(2-(1-(2-(2,6-dioxopiperidin-3-yl)-1,3-dioxoisoindolin-5-yl)piperidin-4-yl)ethyl)azetidin-3-yl)oxy)-N-(2-((R)-1-methylpyrrolidin-2-yl)-1H-pyrrolo[3,2-c]pyridin-6-yl)benzamide] | D (Category D: D < 25% degradation) | C (Category C: 25% ≤ C < 50% degradation) | C (Category C: 25% ≤ C < 50% degradation) |
| CN1CCC[C@@H]1c1cc2cnc(NC(=O)c3cccc(N4CCN(CC5CCN(c6ccc7c(c6)C(=O)N(C6CCC(=O)NC6=O)C7=O)CC5)CC4)c3)cc2[nH]1 (stereo partly drawn) [Example 220, 3-(4-((1-(2-(2,6-dioxopiperidin-3-yl)-1,3-dioxoisoindolin-5-yl)piperidin-4-yl)methyl)piperazin-1-yl)-N-(2-((R)-1-methylpyrrolidin-2-yl)-1H-pyrrolo[3,2-c]pyridin-6-yl)benzamide] | D (Category D: D < 25% degradation) | C (Category C: 25% ≤ C < 50% degradation) | B (Category B: 50% ≤ B < 75% degradation) |
| CN1CCC[C@@H]1c1cc2cnc(NC(=O)c3ccc(N4CCC(C#Cc5cccc6c5CN(C5CCC(=O)NC5=O)C6=O)CC4)nn3)cc2[nH]1 (stereo partly drawn) [Example 185, 6-(4-((2-(2,6-dioxopiperidin-3-yl)-1-oxoisoindolin-4-yl)ethynyl)piperidin-1-yl)-N-(2-((R)-1-methylpyrrolidin-2-yl)-1H-pyrrolo[3,2-c]pyridin-6-yl)pyridazine-3-carboxamide] | C (Category C: 25% ≤ C < 50% degradation) | B (Category B: 50% ≤ B < 75% degradation) | B (Category B: 50% ≤ B < 75% degradation) |
| CN1CCC[C@@H]1c1cc2cnc(NC(=O)c3ccc(N4CCC(OCC5CCN(c6cccc7c6C(=O)N(C6CCC(=O)NC6=O)C7=O)CC5)CC4)nc3)cc2[nH]1 (stereo partly drawn) [Example 18, 6-(4-((1-(2-(2,6-dioxopiperidin-3-yl)-1,3-dioxoisoindolin-4-yl)piperidin-4-yl)methoxy)piperidin-1-yl)-N-(2-((R)-1-methylpyrrolidin-2-yl)-1H-pyrrolo[3,2-c]pyridin-6-yl)nicotinamide] | B (Category B: 50% ≤ B < 75% degradation) | A (Category A: A ≥ 75% degradation) | A (Category A: A ≥ 75% degradation) |
| CCN1CCC[C@@H]1c1cc2cnc(NC(=O)c3ccc(N4CCC(CC#Cc5cccc6c5CN(C5CCC(=O)NC5=O)C6=O)CC4)nc3)cc2[nH]1 (stereo partly drawn) [Example 73, 6-(4-(3-(2-(2,6-dioxopiperidin-3-yl)-1-oxoisoindolin-4-yl)prop-2-yn-1-yl)piperidin-1-yl)-N-(2-((R)-1-ethylpyrrolidin-2-yl)-1H-pyrrolo[3,2-c]pyridin-6-yl)nicotinamide] | B (Category B: 50% ≤ B < 75% degradation) | A (Category A: A ≥ 75% degradation) | B (Category B: 50% ≤ B < 75% degradation) |
